Laboratory results taken from US11702403B2, “EAAT2 activators and methods of using thereof” (OHIO STATE INNOVATION FOUNDATION, priority 2018, dated 2023).

Tests used:
GSK3β = test: Phosphorylation state of kinases in forebrain TCL of rTg4510 mice; assay type: in vivo; details: within one hour of treatment, single dose
Description: (§1) FIGS. 7A and 7B illustrate the effect of compound treatment on phosphorylated tau in total lysates (TCL) and in the Sarkosyl insoluble (P3) fraction (n=4/group). Dashed-line represents expression in rTg4510 vehicle group.
(§2) To identify which kinase/phosphatase is involved, forebrain TCL samples were collected from rTg4510 mice one-hour after a single dose. The phosphorylation (activation) state of kinases that have been reported to target tau as a substrate were assessed. […] This form of phosphorylation inhibits GSK3β activity. Therefore, inactivation of the GSK3β kinase may mediate reduced tau phosphorylation in rTg4510 mice after compound treatment.

EAAT2 [1] = test: EAAT2 protein levels in forebrain gliosomes of wild-type FVB/NJ mice by Western blot; assay type: in vivo; details: oral 1, 2.5, 5, 10, 20, 40 mg/kg, 24 hours post-treatment
Description: (§3) Mice were treated with compound at 40 mg/kg (or as depicted) and forebrains were harvested for the gliosome preparation 24 hr (or as described) post-treatment. FIG. 2A: Western blots show dose-dependent increase of EAAT2 protein levels. FIG. 2B: Time-dependent fold increase in EAAT2 protein expression in response to compound treatment at 4 hours (1.54±0.13) and 24 hours (1.98±0.19) post-treatment. Quantification of EAAT2 expression time course (normalized to flotilin; n=4/group). Data represented as mean SEM and analyzed using one-way ANOVA with Tukey post-hoc test. *p<0.05, **p<0.01. FIG. 2C: Compound treatment enhances CA3-CA1 LTP in the hippocampus. Mice were treated with vehicle or compound for seven days and acute hippocampal sections were collected for LTP recordings. […] Data represented as mean SEM analyzed using one-way ANOVA with Bonferroni post-hoc tests. Statistical significance denoted as ***p<0.001.
At 24 hours post-treatment, mice were euthanized and forbrains were harvested. Gliosomes (astrocytic processes) were then isolated for measuring EAAT2 protein levels by Western blot analysis. […] This induction could be seen as early as 4 hours post-treatment (FIG. 2B). […] Acute hippocampal slices were then collected and assessed for changes in long-term potentiation (LTP).

tau = test: Tau expression and phosphorylation in total cell lysates and Sarkosyl insoluble fractions of rTg4510 forebrains; assay type: in vivo, mice
Excerpt: as §1
We, therefore, investigated if the compound could reduce toxic forms of tau. […] Four antibodies, which recognized different phosphorylation sites or pathological forms of tau, were used: PHF1 recognized Ser 396 & Ser404; AT8 recognized Ser202 & Thr205; MC-1 recognized neurofibrillary tangles and Tau5 recognized all of tau (phosphorylated and non-phosphorylated isoforms). […] There was an especially significant reduction in the 64 kDa (hyperphosphorylated) variant for each antibody tested; it has been reported that the 64 kDa variant was strongly correlated with neurodegeneration.
as §2, with “To identify which kinase/phosphatase is involved, forebrain TCL samples were collected from rTg4510 mice one-hour after a single dose.” left out

human EAAT2 = test: EAAT2 protein levels in PA-EAAT2 cells by Western blot; assay type: cell-based
Description: Compounds were evaluated in PA-EAAT2 cells, a primary astrocyte stably expressing human EAAT2 mRNAs (Kong et al., J Clin Invest. 2014:1255-67). Cells were treated with compound at 0.0375, 0.075, 0.15, 0.3, 0.6, 1.25, 2.5, 5, 10 μM for 24 hr and then harvested for measuring EAAT2 protein levels by Western blot analysis.

EAAT2 [2] = test: EAAT2 protein levels in brains of Beagle dogs by Western blot; assay type: in vivo; details: oral 20 mg/kg; 0.5, 4, 24 hours post-treatment and seven daily treatment
EAAT2 [3] = test: EAAT2 protein levels in brains of wild-type C57BL/6 mice by Western blot; assay type: in vivo; details: 10 mpk p.o.
Description: Mice then were euthanized and brains were harvested for examining EAAT2 protein levels by Western blot analysis.
Wild-type C57BL/6 mice (2-3 months old) were treated orally with compound 101 at 0.01, 0.033, 0.1, 0.33, 1, 3.33, 10, 20, 40, 60, and 100 mg/kg/day (voluntary ingestion of compound in honey) for seven or 28 days. Mice then were euthanized and brains were harvested for examining EAAT2 protein levels by Western blot analysis. […] To determine the functional consequences of the increased EAAT2 to the synaptic plasticity, wild-type mice were treated with vehicle or compound 101 at 0.033, 0.33, and 3.3 mg/kg for seven days. Mice were then euthanized and acute hippocampal slices were collected and assessed for changes in long-term potentiation (LTP).

[4] = tested on: CA3-CA1 LTP in the hippocampus; test: Long-term potentiation (LTP) in acute hippocampal slices of treated wild-type mice; assay type: in vivo; details: 10 mg/kg for 7 days, vs vehicle, up to 30 min after LTP induction
Description: as §3, with “Statistical significance denoted as ***p<0.001.” left out
At 24 hours post-treatment, mice were euthanized and forbrains were harvested. […] Acute hippocampal slices were then collected and assessed for changes in long-term potentiation (LTP).
Wild-type C57BL/6 mice (2-3 months old) were treated orally with compound 101 at 0.01, 0.033, 0.1, 0.33, 1, 3.33, 10, 20, 40, 60, and 100 mg/kg/day (voluntary ingestion of compound in honey) for seven or 28 days. […] Mice were then euthanized and acute hippocampal slices were collected and assessed for changes in long-term potentiation (LTP).

[5] = tested on: mouse model of Gulf War Illness (GWI); test: Mouse model of Gulf War Illness, mood and cognitive behavior tests; assay type: in vivo, C57BL/6J mice
Description: Three months old C57BL/6J mice were randomly divided into three groups: control (no GWI, with vehicle), GWI with vehicle, and GWI with compound. For GWI groups, mice were exposed to GWI chemicals and chronic unpredictable stress daily for 6 weeks. GWI chemicals include pyridostigmine (1.3 mg/kg), permethrin (0.13 mg/kg), and DEET (40 mg/kg). The stress regimen included exposure to two different stressors each day. The stressors used in this study include restraint, cage rotation, hot stress, cold stress, predator sound, periods of darkness during the light cycle, wet bedding, replace bedding with water, cage tilt at 45 degree angle, and stroboscopic lighting. […] At 3-months post-exposure, mice were subjected to several behavior tests to assess mood and cognitive functions. These tests included dark and light exploration, elevated plus maze, novelty suppressed feeding, tail suspension open field, novel object recognition, and Barnes maze tests.
After one month of treatment, mice were evaluated for mood and cognitive functions.

[6] = prevention: 20 mg/kg daily from beginning of 6-weeks exposure, tested 3-months post-exposure
[7] = treatment: 20 mg/kg at five months post-exposure, one month of treatment

SMILES: CN(C)CCn1nc(-c2ccccn2)ccc1=O [Compound 100, 2-(2-(dimethylamino)ethyl)-6-(pyridin-2-yl)pyridazin-3(2H)-one]
- phosphorylation of GSK3β at Ser9 (GSK3β): approximately 2 fold
- EAAT2 protein levels in gliosomes (EAAT2 [1]): induced EAAT2 expression in a dose-dependent manner
- total-tau (transgene expression) (tau; four months old, after two months of treatment): no reduction in total-tau
- total tau in the P3 fraction (tau; long-term treatment, Sarkosyl insoluble (P3) fraction): very significant reduction
- phosphorylated (AT8 and PHF1) and conformation specific (MC1) forms of tau (tau; long-term treatment, TCL and P3 fraction): reduced
- all forms of tau in the P3 fraction (tau; single dose, 24 hours later): very clear reduction
- pTau (AT8 and PHF1) in TCL (tau; single dose, 24 hours later): significant decrease
- total tau (Tau-5) or tau tangles (MC1) in TCL (tau; single dose, 24 hours later): no change
- concentration that reaches maximum activity (human EAAT2; PA-EAAT2 cells, 24 hr, tested 0.0375-10 μM): 0.6 µM
- EC50 (human EAAT2; primary astrocytes, read-out: EAAT2 induction in vitro - primary astrocytes (EC50)): 250 nM
- EAAT2 protein levels in dog brains (EAAT2 [2]): increased in a time-dependent manner
- EAAT2 induction in vivo in wild-type mice - 7-day dosing by p.o. (EAAT2 [3]; 7-day dosing): 1.63-fold @ 10 mpk
- EAAT2 induction in vivo in wild-type mice - 28-day dosing by p.o. (EAAT2 [3]; 28-day dosing): 2.37-fold @ 10 mpk
- EAAT2 induction in vivo in wild-type mice - single dose by p.o. (EAAT2 [3]; single dose): 1.56-fold @ 10 mpk
- CA1 field potential responses to stimulation of CA3 afferents (LTP) [4]: significantly increased responses
- anxiety- and depression-like behaviors [5, 6]: significantly reduced
- cognitive functions [5, 6]: improved cognitive functions
- anxiety- and depression-like behaviors [5, 7]: reduced anxiety- and depression-like behaviors
- cognitive functions [5, 7]: significantly improved
